Source: paper PMC9228412, “Synthesis and Activity of Triazole-Adenosine Analogs as Protein Arginine Methyltransferase 5 Inhibitors” (Molecules, 2022)

Legend:
[1] = biological target: T1, PRMT5 (Homo sapiens, UniProt O14744); assay: scintillation proximity assay (SPA) of PRMT5 methyltransferase activity; format: biochemical; settings: 0.5 μM H4(1–20)K20biotin, 0.5 μM 3H-SAM; for remaining activity at 10 µM: 0.5 h, remaining activity of the enzyme, single point SPA test, inhibitor 10 μM, read-out: Relative Activity of PRMT5 at 10 μM; for IC50: SPA, concentration-dependent, read-out: IC50 PRMT5 (converted)
T1 construct: His-tag; made in house; host or cells: Sf9 insect cells (Bac-to-Bac baculovirus)
T1 sequence (O14744 whole entry): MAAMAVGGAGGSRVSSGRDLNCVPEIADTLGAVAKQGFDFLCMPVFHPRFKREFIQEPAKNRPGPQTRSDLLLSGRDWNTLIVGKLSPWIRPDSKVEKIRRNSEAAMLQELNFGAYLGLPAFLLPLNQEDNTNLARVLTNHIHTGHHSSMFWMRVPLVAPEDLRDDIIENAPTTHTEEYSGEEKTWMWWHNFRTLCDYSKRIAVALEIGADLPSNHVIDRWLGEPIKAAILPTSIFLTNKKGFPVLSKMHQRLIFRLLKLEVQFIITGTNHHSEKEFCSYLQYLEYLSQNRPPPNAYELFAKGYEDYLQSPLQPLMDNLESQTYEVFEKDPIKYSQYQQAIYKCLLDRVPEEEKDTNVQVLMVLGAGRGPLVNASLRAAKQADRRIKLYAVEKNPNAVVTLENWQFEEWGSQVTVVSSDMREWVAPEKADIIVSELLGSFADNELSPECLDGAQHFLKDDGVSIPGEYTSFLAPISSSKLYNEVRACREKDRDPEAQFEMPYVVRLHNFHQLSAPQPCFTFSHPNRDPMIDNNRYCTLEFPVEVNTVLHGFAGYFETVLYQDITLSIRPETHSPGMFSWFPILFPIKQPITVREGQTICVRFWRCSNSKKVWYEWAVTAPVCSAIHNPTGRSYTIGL
T1 sequence (Q9BQA1 whole entry partner): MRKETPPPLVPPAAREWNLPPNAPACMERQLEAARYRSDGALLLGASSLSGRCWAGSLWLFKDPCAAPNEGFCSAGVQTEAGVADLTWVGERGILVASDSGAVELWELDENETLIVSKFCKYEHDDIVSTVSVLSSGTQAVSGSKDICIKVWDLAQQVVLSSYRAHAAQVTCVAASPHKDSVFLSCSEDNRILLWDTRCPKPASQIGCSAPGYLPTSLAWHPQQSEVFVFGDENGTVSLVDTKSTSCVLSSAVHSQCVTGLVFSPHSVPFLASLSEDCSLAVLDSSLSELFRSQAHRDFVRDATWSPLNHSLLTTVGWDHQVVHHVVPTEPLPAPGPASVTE
Protocol: (§1) The methyltransferase activities of PRMT5 and PRMT1 in the absence and presence of the synthetic inhibitors were measured by using the scintillation proximity assay (SPA) protocol (Table 1). In the initial test, the inhibitor concentration was set at 10 μM. H4(1–20)K20biotin [Ac-[…](biotin)-NH2] was used as the peptide substrate, at a final concentration of 0.5 μM. ^3H-SAM was used as the methyl donor at 0.5 μM. SAH was used as a control inhibitor. […] Analysis of the biochemical activity results against PRMT5 disclosed a few interesting structure–activity relationship (SAR) trends. […] If the hydroxyl group of 3 was changed to an amine (6), the potency was improved; however, the selectivity was abolished. Generally, compounds that contained positive charges (6, 20, 21, 22, 24) near the triazole ring had further improved potencies.
Human recombinant His-tag PRMT5 was co-expressed with His-tag MEP50 using the Bac-to-Bac baculovirus expression system (Invitrogen, Life Technologies, Carlsbad, CA, USA) as previously described. Briefly, pFB-LIC-Bse-PRMT5 and pFB-LIC-Bse-MEP50 were heat shock transformed in the DH10Bac E. coli to obtain the recombinant bacmids, and the bacmids were extracted using the PureLink HiPure Plasmid Miniprep Kit (Invitrogen, Thermo Scientific, Carlsbad, CA, USA). The purity and concentration of the plasmid were measured by a Nanodrop. Sf9 cells were cultured in Sf-900 II SFM medium until the cell density reached 1.5 × 10^6 cells/mL and cell viability was more than 95%. Cells were plated in a 6-well tissue culture plate at a density of 4 × 10^5 cells/mL per well. In total, 2 µg of PRMT5 and MEP50 recombinant bacmid were transfected into each well of cells. After 5 h of transfection, the transfection medium was replaced by 2 mL of Sf-900 II SFM + 100 U P/S per well. The medium was collected and centrifuged at 1000 rpm for 5 min to obtain the supernatant P1 viral stock after 7 days of inoculation at 27.5 °C. To obtain a higher titer of viral stock, P1 viral stock was amplified in a 6-well tissue culture plate containing 2 × 10^6 cells per well. In total, 0.1 MOI of P1 virus stock was added into each well. After 7 days of incubation at 27.5 °C, the cell medium was centrifuged at 1000 rpm for 5 min to obtain the P2 viral stock in the supernatant. The Baculovirus plaque assay was performed to determine the viral titer concentration; the target concentration range was 1 × 10^7–1 × 10^8 IFU/mL.
For the expression of PRMT5 and MEP50, Sf9 insect cells were cultured in suspension at 27.5 °C at a speed of 130 rpm in Expression Systems ESF 921 medium with 100 U P/S. In total, 200 mL of Sf9 cell culture was inoculated with PRMT5 and MEP50 P2 viral stocks when the cell density reached 1.5 × 10^6 cells/mL. After incubation for 72 h at 27.5 °C, the cells were harvested and centrifuged. PRMT5 and MEP50 protein were collected in the cell pellet for further purification. Cell pellets were disrupted twice at 100 psi in 25 mL of cell lysis buffer (50 mM Tris pH 8, 300 mM NaCl, 10% glycerol, 0.1% Triton X-100, 1 mM PMSF). Before the Ni-NTA purification, 10 mL of Ni-NTA resin (EMD Millipore, Burlington, MA, USA) was loaded into a 50 mL column and equilibrated with equilibration buffer (50 mM Tris pH 8, 250 mM NaCl, 30 mM Imidazole, 10% glycerol, 1 mM TCEP, 1 mM PMSF). After 60 min of cell lysate centrifugation at 4 °C at 18,000 rpm, the cell lysate supernatant was incubated with the equilibrated nickel resin. The resin was washed with equilibration buffer and protein was eluted with elution buffer (50 mM Tris pH 8, 250 mM NaCl, 300 mM Imidazole, 10% glycerol, 1 mM TCEP, 1 mM PMSF). For the dialysis of protein, elution samples were loaded into a 10,000 MWCO SnakeSkin (Thermo Scientific, Waltham, MA, USA) dialysis bag in the storage buffer (50 mM Tris pH 8, 250 mM NaCl, 10% glycerol, 1 mM TCEP). […]

[2] = biological target: PRMT1 (Homo sapiens, UniProt Q99873); assay: scintillation proximity assay (SPA) of PRMT1 methyltransferase activity; format: biochemical; settings: for remaining activity at 10 µM: 0.5 h, remaining activity of the enzyme, single point SPA test, inhibitor 10 μM, read-out: Relative Activity of PRMT1 at 10 μM; for IC50: SPA, concentration-dependent, read-out: IC50 PRMT1 (converted)
PRMT1, sequence (Q99873 whole entry, species assumed): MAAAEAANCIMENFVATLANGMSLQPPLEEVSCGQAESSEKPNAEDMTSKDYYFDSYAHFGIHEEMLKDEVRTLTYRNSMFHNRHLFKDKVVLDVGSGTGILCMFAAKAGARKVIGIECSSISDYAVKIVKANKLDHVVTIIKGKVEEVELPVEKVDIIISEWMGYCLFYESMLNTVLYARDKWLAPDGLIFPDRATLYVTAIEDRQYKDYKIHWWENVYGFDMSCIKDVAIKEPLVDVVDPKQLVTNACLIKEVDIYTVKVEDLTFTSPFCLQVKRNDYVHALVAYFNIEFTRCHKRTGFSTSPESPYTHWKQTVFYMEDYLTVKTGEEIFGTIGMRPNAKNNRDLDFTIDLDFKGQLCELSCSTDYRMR
Protocol: as §1
Inhibitor was dissolved in water to create a 10 mM stock concentration. This was then diluted in buffer (50 mM HEPES pH 8, 10 mM NaCl, 0.5 mM EDTA, 0.5 mM DTT in H2O) to create a series of working concentrations centered around an anticipated IC50. [H]^3-SAM and substrate were diluted together in buffer to working concentrations of […], respectively. To each well in a 96-well plate, 6 μL of the inhibitor solution was added, with negative and positive controls receiving buffer. In total, 6 μL of the [H]^3-SAM/substrate solution was then added to each well. The enzyme was then diluted in buffer to a working concentration of 0.83 μM, and 18 μL was added to each well, with negative controls receiving 18 μL of buffer. The plate was covered, and the reaction was allowed to run for 30 min and was then quenched with the addition of 30 μL of 100% iPrOH followed by 60 μL of 50% iPrOH in H2O. In total, 10 μL of 20 mg/mL streptavidin-coated scintillant beads were added and the plate was read using a MicroBeta (Perkin Elmer, Waltham, MA, USA) plate reader. The CPM counts in the absence of an inhibitor for each data set were considered as 100% activity. In the absence of the enzyme and inhibitor, the CPM counts in each data set were defined as background (0%).

Row | Compound | remaining activity at 10 µM [1] [%] | IC50 [1] [µM] | remaining activity at 10 µM [2] [%] | IC50 [2] [µM]
1 | [N-]=[N+]=NC[C@H]1O[C@@H](n2cnc3c(N)ncnc32)[C@H](O)[C@@H]1O [Compound 1, 5′-azido-5′-deoxyadenosine] | 48 ± 9.7 | 3 | 97.5 ± 7.6 | > 1000
2 | Nc1ncnc2c1ncn2[C@@H]1O[C@H](Cn2ccnn2)[C@@H](O)[C@H]1O [Compound 2, (2R,3S,4R,5R)-2-((1H-1,2,3-triazol-1-yl)methyl)-5-(6-amino-9H-purin-9-yl)tetrahydrofuran-3,4-diol] |  | 27 |  | > 1000
3 | Nc1ncnc2c1ncn2[C@@H]1O[C@H](Cn2cc(CO)nn2)[C@@H](O)[C@H]1O [Compound 3, (2R,3R,4S,5R)-2-(6-amino-9H-purin-9-yl)-5-((4-(hydroxymethyl)-1H-1,2,3-triazol-1-yl)methyl)tetrahydrofuran-3,4-diol] |  | 4.4 |  | > 1000
4 | COCc1cn(C[C@H]2O[C@@H](n3cnc4c(N)ncnc43)[C@H](O)[C@@H]2O)nn1 [Compound 4, (2R,3R,4S,5R)-2-(6-amino-9H-purin-9-yl)-5-((4-(methoxymethyl)-1H-1,2,3-triazol-1-yl)methyl)tetrahydrofuran-3,4-diol] |  | 144 |  | > 1000
5 | Nc1ncnc2c1ncn2[C@@H]1O[C@H](Cn2cc(CCO)nn2)[C@@H](O)[C@H]1O [Compound 5, (2R,3R,4S,5R)-2-(6-amino-9H-purin-9-yl)-5-((4-(2-hydroxyethyl)-1H-1,2,3-triazol-1-yl)methyl)tetrahydrofuran-3,4-diol] |  | 195 |  | > 1000
6 | NCc1cn(C[C@H]2O[C@@H](n3cnc4c(N)ncnc43)[C@H](O)[C@@H]2O)nn1 [Compound 6, (2R,3R,4S,5R)-2-(6-amino-9H-purin-9-yl)-5-((4-(aminomethyl)-1H-1,2,3-triazol-1-yl)methyl)tetrahydrofuran-3,4-diol] | 61 ± 8 | 1.2 | 96.3 ± 8 | 
7 | C[Si](C)(C)c1cn(C[C@H]2O[C@@H](n3cnc4c(N)ncnc43)[C@H](O)[C@@H]2O)nn1 [Compound 7, (2R,3R,4S,5R)-2-(6-amino-9H-purin-9-yl)-5-((4-(trimethylsilyl)-1H-1,2,3-triazol-1-yl)methyl)tetrahydrofuran-3,4-diol] |  | 8.3 |  | > 1000
8 | CC(C)(C)c1cn(C[C@H]2O[C@@H](n3cnc4c(N)ncnc43)[C@H](O)[C@@H]2O)nn1 [Compound 8, (2R,3R,4S,5R)-2-(6-amino-9H-purin-9-yl)-5-((4-(tert-butyl)-1H-1,2,3-triazol-1-yl)methyl)tetrahydrofuran-3,4-diol] |  | 7.7 |  | > 1000
9 | C[Si](C)(C)Cc1cn(C[C@H]2O[C@@H](n3cnc4c(N)ncnc43)[C@H](O)[C@@H]2O)nn1 [Compound 9, (2R,3R,4S,5R)-2-(6-amino-9H-purin-9-yl)-5-((4-((trimethylsilyl)methyl)-1H-1,2,3-triazol-1-yl)methyl)tetrahydrofuran-3,4-diol] |  | > 200 |  | > 1000
10 | Nc1ncnc2c1ncn2C1OC(Cn2cc(CCC(N)c3ccccc3)nn2)C(O)C1O (stereo not shown) [Compound 10] | 71 ± 17 |  | 103 ± 5.6 | 
11 | Nc1ncnc2c1ncn2[C@@H]1O[C@H](Cn2cc(C(=O)O)nn2)[C@@H](O)[C@H]1O [Compound 11, 1-(((2R,3S,4R,5R)-5-(6-amino-9H-purin-9-yl)-3,4-dihydroxytetrahydrofuran-2-yl)methyl)-1H-1,2,3-triazole-4-carboxylic acid] | 74 ± 11 |  | 96.9 ± 2.2 | 
12 | Nc1ncnc2c1ncn2[C@@H]1O[C@H](Cn2cc(CCCC(=O)O)nn2)[C@@H](O)[C@H]1O [Compound 12, 4-(1-(((2R,3S,4R,5R)-5-(6-amino-9H-purin-9-yl)-3,4-dihydroxytetrahydrofuran-2-yl)methyl)-1H-1,2,3-triazol-4-yl)butanoic acid] | 73 ± 12 | > 400 | 99.3 ± 6.7 | 

Now from value to compound:

Row | remaining activity at 10 µM [1] [%] | IC50 [1] [µM] | remaining activity at 10 µM [2] [%] | IC50 [2] [µM] | Compound
13 | 57 ± 4.4 | > 40 | 92.7 ± 10 |  | Nc1ncnc2c1ncn2[C@@H]1O[C@H](Cn2cc(CCCCC(=O)O)nn2)[C@@H](O)[C@H]1O [Compound 13, 5-(1-(((2R,3S,4R,5R)-5-(6-amino-9H-purin-9-yl)-3,4-dihydroxytetrahydrofuran-2-yl)methyl)-1H-1,2,3-triazol-4-yl)pentanoic acid]
14 | 51 ± 5.7 | 2.6 | 90.1 ± 5.7 |  | Nc1ncnc2c1ncn2[C@@H]1O[C@H](Cn2cc(-c3ccccc3)nn2)[C@@H](O)[C@H]1O [Compound 14, (2R,3R,4S,5R)-2-(6-amino-9H-purin-9-yl)-5-((4-phenyl-1H-1,2,3-triazol-1-yl)methyl)tetrahydrofuran-3,4-diol]
15 | 94.2 ± 12 | > 40 | 123 ± 4.4 |  | Nc1ncnc2c1ncn2[C@@H]1O[C@H](Cn2cc(CNC(=O)c3ccccc3)nn2)[C@@H](O)[C@H]1O [Compound 15, N-((1-(((2R,3S,4R,5R)-5-(6-amino-9H-purin-9-yl)-3,4-dihydroxytetrahydrofuran-2-yl)methyl)-1H-1,2,3-triazol-4-yl)methyl)benzamide]
16 | 80 ± 9.5 |  | 101 ± 10 |  | Nc1ncnc2c1ncn2[C@@H]1O[C@H](Cn2cc(CNC(=O)OCc3ccccc3)nn2)[C@@H](O)[C@H]1O [Compound 16]
17 | 56 ± 10 |  | 91 ± 11 |  | CCC(=O)Oc1ccc(CCc2cn(C[C@H]3O[C@@H](n4cnc5c(N)ncnc54)[C@H](O)[C@@H]3O)nn2)cc1OC(=O)C(C)C [Compound 17]
18 | 56 ± 6.4 |  | 91.2 ± 4.7 |  | Nc1ncnc2c1ncn2[C@@H]1O[C@H](Cn2cc(C[C@H](NC(=O)OCC3c4ccccc4-c4ccccc43)C(=O)O)nn2)[C@@H](O)[C@H]1O [Compound 18, (S)-2-((((9H-fluoren-9-yl)methoxy)carbonyl)amino)-3-(1-(((2R,3S,4R,5R)-5-(6-amino-9H-purin-9-yl)-3,4-dihydroxytetrahydrofuran-2-yl)methyl)-1H-1,2,3-triazol-4-yl)propanoic acid]
